Experimental data: BindingDB's records for doi:10.1021/jm010576e (Chiba University, 2002)

Test: Binding affinity using guinea pig brain membrane preparations, towards Opioid receptor delta 1 using [3H]DPDPE as radioligand

Row | Structure (SMILES) | Ki [µM]
1 | CC[C@@H]1CN2CCc3c([nH]c4ccccc34)[C@@H]2C[C@@H]1/C(=C\OC)C(=O)OC [CHEBI:70073] | 2.88
2 | CC[C@@H]1CN2CCc3c([nH]c4cccc(O)c34)[C@@H]2C[C@@H]1/C(=C\OC)C(=O)OC | 30.9
3 | CC[C@@H]1CN2CC[C@@]3(O)C(=Nc4cccc(OC)c43)[C@@H]2C[C@@H]1/C(=C\OC)C(=O)OC | 0.155
4 | CC[C@@H]1CN2CCc3c([nH]c4cccc(OC)c34)[C@@H]2C[C@@H]1/C(=C\OC)C(=O)OC [CHEBI:6956] | 0.06
